Source: ChEMBL document CHEMBL1145229, “Identified a morpholinyl-4-piperidinylacetic acid derivative as a potent oral active VLA-4 antagonist” (Bioorg Med Chem Lett, 2005)

Experiments:
[1] = in vivo; conditions: Sprague-Dawley, rat, po, 1.2 mg/kg
Description: Percent bioavailability in sprague-dawley rat at a dosage(inta venous 1.2 mg/kg, oral 5 mg/kg )

[2] = in vivo; conditions: rat
Description: Half life in lambda1 phase in rat

[3] = in vivo; conditions: rat; remark: listed apart in the source
Description: Half life in lambda2 phase in rat

[4] = in vivo; conditions: Sprague-Dawley, rat, iv, 1.2 mg/kg
Description: Clearance in sprague dawley rat at 1.2 mg/kg intra venous dosage

bioavailability [1]	half-life [2]	half-life [3]	clearance [4]	SMILES
< 1%	2.8 min	9.1 min	75.1 mL/min/kg	Cc1ccccc1NC(=O)Nc1ccc(CC(=O)N2CCCC2C(=O)NCCCCC(=O)O)cc1 (stereo not drawn)
< 1%	5.8 min	20.2 min	41.3 mL/min/kg	Cc1ccccc1NC(=O)Nc1ccc(CC(=O)N2CCCC2C(=O)N2CCC(CC(=O)O)CC2)cc1 (stereo not drawn)
